Values joined by “and” are separate entries in the source; they are usually repeats but may differ in a detail not shown here. Identical values can stand only once. Toxic doses and inconclusive results are not listed. Rule as the data show it: active = T/C of 150% or more; inactive = T/C below 125%.
System: L1210 leukemia ip in BDF1 mice, survival T/C
Test: NCI In Vivo Anticancer Drug Screen. Data for tumor model L1210 Leukemia (intraperitoneal) in B6D2F1 (BDF1) mice
Conditions: endpoint: mean survival time, higher = longer survival
In short: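 Survival endpoint. Drug-treated group vs vehicle group, expressed as T divided by C. Tumor passaged by transplantation.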

[1] = dose: 25.0 mg/kg/injection, schedule: Q01DX009 (ip), vehicle: Klucel (hydroxypropylcellulose) (HPC)
[2] = dose: 50.0 mg/kg/injection, schedule: Q01DX009 (ip), vehicle: Klucel (hydroxypropylcellulose) (HPC)
[3] = dose: 100.0 mg/kg/injection, schedule: Q01DX009 (ip), vehicle: saline with Tween-80
[4] = dose: 100.0 mg/kg/injection, schedule: Q04DX003 (ip), vehicle: saline with Tween-80
[5] = dose: 200.0 mg/kg/injection, schedule: Q01DX009 (ip), vehicle: saline with Tween-80
[6] = dose: 200.0 mg/kg/injection, schedule: Q04DX003 (ip), vehicle: saline with Tween-80
[7] = dose: 400.0 mg/kg/injection, schedule: Q01DX009 (ip), vehicle: saline with Tween-80
[8] = dose: 400.0 mg/kg/injection, schedule: Q04DX003 (ip), vehicle: saline with Tween-80
[9] = dose: 100.0 mg/kg/injection, schedule: Q01DX009 (ip), vehicle: Klucel (hydroxypropylcellulose) (HPC)
[10] = dose: 200.0 mg/kg/injection, schedule: Q01DX009 (ip), vehicle: Klucel (hydroxypropylcellulose) (HPC)
[11] = dose: 100.0 mg/kg/injection, schedule: Q01DX001 (ip), vehicle: other
[12] = dose: 200.0 mg/kg/injection, schedule: Q01DX001 (ip), vehicle: other
[13] = dose: 400.0 mg/kg/injection, schedule: Q01DX001 (ip), vehicle: other
[14] = dose: 6.25 mg/kg/injection, schedule: Q04DX003 (ip), vehicle: saline
[15] = dose: 12.5 mg/kg/injection, schedule: Q04DX003 (ip), vehicle: saline
[16] = dose: 25.0 mg/kg/injection, schedule: Q04DX003 (ip), vehicle: saline
[17] = dose: 100.0 mg/kg/injection, schedule: Q04DX003 (ip), vehicle: saline
[18] = dose: 200.0 mg/kg/injection, schedule: Q04DX003 (ip), vehicle: saline
[19] = dose: 400.0 mg/kg/injection, schedule: Q04DX003 (ip), vehicle: saline
[20] = dose: 200.0 mg/kg/injection, schedule: Q04DX002 (ip), vehicle: Klucel (hydroxypropylcellulose) (HPC)

Measured: T/C

N#CCCN1CCCC1=O
inactive: dose: 100.0 mg/kg/injection, schedule: Q01DX001 (ip), vehicle: saline 103 % of control | dose: 200.0 mg/kg/injection, schedule: Q01DX001 (ip), vehicle: saline 100 % of control | dose: 400.0 mg/kg/injection, schedule: Q01DX001 (ip), vehicle: saline 106 % of control

F[Si](c1ccccc1)(c1ccccc1)c1ccccc1
inactive: dose: 37.5 mg/kg/injection, schedule: Q01DX009 (ip), vehicle: saline 88 % of control | dose: 75.0 mg/kg/injection, schedule: Q01DX001 (ip), vehicle: saline 93 % of control | dose: 75.0 mg/kg/injection, schedule: Q01DX009 (ip), vehicle: saline 95 % of control | dose: 150.0 mg/kg/injection, schedule: Q01DX001 (ip), vehicle: saline 102 % of control | dose: 150.0 mg/kg/injection, schedule: Q01DX009 (ip), vehicle: saline 95 % of control | dose: 300.0 mg/kg/injection, schedule: Q01DX001 (ip), vehicle: saline 93 % of control

CCCCCCCCCC(=O)N/N=C/c1ccccc1Cl
inactive: dose: 12.5 mg/kg/injection, schedule: Q01DX009 (ip), vehicle: Klucel (hydroxypropylcellulose) (HPC) 112 % of control | [1] 113 % of control | [2] 104 % of control

CCOc1ccc(NC(=S)NC(=O)c2cccc([N+](=O)[O-])c2)cc1
inactive: dose: 100.0 mg/kg/injection, schedule: Q01DX001 (ip), vehicle: saline with Tween-80 93 % of control | [3] 92 % of control and 95 % of control | dose: 100.0 mg/kg/injection, schedule: Q04DX002 (ip), vehicle: saline with Tween-80 93 % of control and 95 % of control | [4] 98 % of control | dose: 200.0 mg/kg/injection, schedule: Q01DX001 (ip), vehicle: saline with Tween-80 101 % of control | [5] 92 % of control and 98 % of control | dose: 200.0 mg/kg/injection, schedule: Q04DX002 (ip), vehicle: saline with Tween-80 97 % of control and 107 % of control | [6] 96 % of control | dose: 400.0 mg/kg/injection, schedule: Q01DX001 (ip), vehicle: saline with Tween-80 102 % of control | [7] 97 % of control and 106 % of control | dose: 400.0 mg/kg/injection, schedule: Q04DX002 (ip), vehicle: saline with Tween-80 104 % of control and 107 % of control | [8] 91 % of control

CSc1cccc(N2C(=O)CC(Sc3ccccc3N)C2=O)c1 (stereo unspecified)
inactive: [9] 90 % of control | [10] 95 % of control | dose: 400.0 mg/kg/injection, schedule: Q01DX009 (ip), vehicle: Klucel (hydroxypropylcellulose) (HPC) 98 % of control

O=C(O)/C=C\Br
inactive: [1] 91 % of control | dose: 50.0 mg/kg/injection, schedule: Q01DX005 (ip), vehicle: Klucel (hydroxypropylcellulose) (HPC) 95 % of control | [2] 106 % of control | dose: 100.0 mg/kg/injection, schedule: Q01DX005 (ip), vehicle: Klucel (hydroxypropylcellulose) (HPC) 103 % of control | [9] 98 % of control

COc1ccc2c(c1)C(Br)N(S(=O)(=O)c1ccc(C)cc1)CCC2=O (stereo unspecified)
inactive: dose: 25.0 mg/kg/injection, schedule: Q01DX009 (ip), vehicle: other 97 % of control | dose: 50.0 mg/kg/injection, schedule: Q01DX009 (ip), vehicle: other 95 % of control | dose: 100.0 mg/kg/injection, schedule: Q01DX009 (ip), vehicle: other 92 % of control | dose: 100.0 mg/kg/injection, schedule: Q04DX003 (ip), vehicle: other 92 % of control | dose: 200.0 mg/kg/injection, schedule: Q01DX009 (ip), vehicle: other 104 % of control | dose: 200.0 mg/kg/injection, schedule: Q04DX003 (ip), vehicle: other 97 % of control | dose: 400.0 mg/kg/injection, schedule: Q04DX003 (ip), vehicle: other 89 % of control

O=S(=O)(NC1CCCCC1)c1ccccc1
inactive: dose: 75.0 mg/kg/injection, schedule: Q01DX009 (ip), vehicle: saline with Tween-80 94 % of control | dose: 150.0 mg/kg/injection, schedule: Q01DX009 (ip), vehicle: saline with Tween-80 95 % of control | dose: 300.0 mg/kg/injection, schedule: Q01DX009 (ip), vehicle: saline with Tween-80 97 % of control

CCCC(Cl)C(=O)Nc1cccc(OC(=O)NC)c1 (stereo unspecified)
inactive: [4] 95 % of control | [6] 93 % of control | [8] 102 % of control

CC12CCC3CC1OC(=O)C32 (stereo unspecified)
inactive: dose: 12.5 mg/kg/injection, schedule: Q01DX001 (ip), vehicle: saline 98 % of control | dose: 25.0 mg/kg/injection, schedule: Q01DX001 (ip), vehicle: saline 94 % of control | dose: 50.0 mg/kg/injection, schedule: Q01DX001 (ip), vehicle: saline 105 % of control

CC(=O)Nc1ccc(Cl)cc1
inactive: dose: 50.0 mg/kg/injection, schedule: Q01DX001 (ip), vehicle: other 101 % of control | [11] 98 % of control | [12] 101 % of control | [13] 106 % of control

O=C(O)/C(Cc1cnc2ccccc2n1)=N\O
inactive: [3] 104 % of control | [4] 105 % of control | [5] 104 % of control | [6] 101 % of control | [7] 93 % of control | [8] 100 % of control

CCOCC(C#N)C#N
inactive: dose: 6.25 mg/kg/injection, schedule: Q01DX009 (ip), vehicle: saline 94 % of control | [14] 96 % of control | dose: 12.5 mg/kg/injection, schedule: Q01DX009 (ip), vehicle: saline 92 % of control | [15] 106 % of control | [16] 99 % of control

CCCCOCCOc1ccc(C(=O)O)cc1
inactive: [11] 106 % of control | [17] 87 % of control | [12] 94 % of control | [18] 94 % of control | [13] 103 % of control | [19] 87 % of control

CC(=O)Nc1cccc2c1Cc1cc([N+](=O)[O-])ccc1-2
inactive: dose: 50.0 mg/kg/injection, schedule: Q04DX003 (ip), vehicle: Klucel (hydroxypropylcellulose) (HPC) 93 % of control | dose: 100.0 mg/kg/injection, schedule: Q01DX001 (ip), vehicle: carboxymethylcellulose (CMC) 92 % of control | dose: 100.0 mg/kg/injection, schedule: Q04DX003 (ip), vehicle: Klucel (hydroxypropylcellulose) (HPC) 93 % of control | dose: 200.0 mg/kg/injection, schedule: Q01DX001 (ip), vehicle: carboxymethylcellulose (CMC) 92 % of control | dose: 200.0 mg/kg/injection, schedule: Q04DX003 (ip), vehicle: Klucel (hydroxypropylcellulose) (HPC) 94 % of control | dose: 400.0 mg/kg/injection, schedule: Q01DX001 (ip), vehicle: carboxymethylcellulose (CMC) 87 % of control

ClC1c2ccccc2-c2nsnc2C1Cl (stereo unspecified)
inactive: [2] 94 % of control | [9] 87 % of control | [10] 91 % of control | [20] 92 % of control

O=C1NC(=O)C2C3CCC(C3)C12 (stereo unspecified)
inactive: [14] 105 % of control | [15] 102 % of control | [16] 102 % of control

CCCCCCCCCCCCN1C(C)=CS/C1=C\C=C\c1scc(C)[n+]1CCCCCCCCCCCC
inactive: dose: 0.78 mg/kg/injection, schedule: Q01DX009 (ip), vehicle: saline with Tween-80 103 % of control | dose: 1.56 mg/kg/injection, schedule: Q01DX009 (ip), vehicle: saline with Tween-80 117 % of control | dose: 6.25 mg/kg/injection, schedule: Q01DX009 (ip), vehicle: saline with Tween-80 90 % of control

Oc1ccc2ccc(O)cc2c1
inactive: dose: 100.0 mg/kg/injection, schedule: Q04DX002 (ip), vehicle: Klucel (hydroxypropylcellulose) (HPC) 105 % of control | [20] 108 % of control | dose: 400.0 mg/kg/injection, schedule: Q04DX002 (ip), vehicle: Klucel (hydroxypropylcellulose) (HPC) 102 % of control

CSCCC(NCc1cc(=O)[nH]c(=O)[nH]1)C(=O)O (stereo unspecified)
inactive: [17] 97 % of control | [18] 101 % of control | [19] 95 % of control
